US20190060311A1, “COMPOSITIONS AND METHODS FOR TREATMENT OF VITILIGO” (ACLARIS THERAPEUTICS, INC., priority 2017, published 2019)
Where a name gives a salt, the structure may show the parent alone.

How the values were obtained:
[1] = tested on: non-segmental facial vitiligo; test: Open-label clinical trial, topical treatment of non-segmental facial vitiligo; format: in vivo; conditions: 0.46% (w/w) topical solution twice daily; as early as 4 weeks after initiating treatment
Excerpt: Subjects with a clinical diagnosis of new onset or actively progressing non-segmental facial vitiligo or worsening of existing facial lesions within the past 6 months were enrolled in an open-label clinical trial and treated with a 0.46% (w/w) topical solution formulation of 5-((2-((4-fluoro-3-methoxy-5-methylphenyl)amino)-5-methylpyrimidin-4-yl)amino)benzo[d]oxazol-2(3H)-one hydrochloride applied twice daily for 24 weeks by the protocol-prescribed method.
It is anticipated that the treatment will be judged to be safe and tolerable.

[2] = Plasma drug levels after oral gavage in the mouse vitiligo model; format: in vivo; conditions: oral gavage QD, post dose
[3] = tested on: destruction of melanocytes; test: Harris mouse model of vitiligo (adoptive transfer of TCR transgenic T cells), in-life vitiligo scoring; format: in vivo; conditions: both doses (50 and 100 mg/kg), oral gavage QD, scored 5 weeks after initiation of dosing
Excerpt: The primary driver of vitiligo is an autoimmune attack on melanocytes, the cells which give skin its color. The initiating event(s) for this autoimmune attack is unknown, however the key cell type driving the destruction of the melanocytes is the CD8+ cytolytic T cell (CTL). A major cytokine that drives the activation/function of these CTL is IFNy, whose receptor signals via JAK1 and JAK2. Drugs that block the function of JAK1 or JAK2 would be predicted to be efficacious in reversing the autoimmune destruction of melanocytes, and this has been confirmed with pilot studies using tofacitinib (an inhibitor of JAK3/JAK1/JAK2) and ruxolitinib (an inhibitor of JAK1/JAK2). The development of novel therapeutics for treatment of vitiligo would be facilitated by an animal model of disease that specifically recapitulates the key features of the disease (IFNγ CD8+ CTL driven destruction of melanocytes). Dr. John Harris of the University of Massachusetts Medical School has developed such a model. […] Attempted induction of disease is then accomplished using a proprietary method and is measured by the degree of melanocyte destruction. […] In FIG. 1, each symbol represents an individual animal, scored 5 weeks after initiation of dosing. Statistical significance was determined with the Student's T test.

[4] = tested on: autoimmune destruction of melanocytes; conditions: pilot studies; cited from earlier work

| time plasma drug levels were above the EC50 for blockade of IFNγ signaling ([2]; 50 mg/kg) [h] | time plasma drug levels were above the EC50 for blockade of IFNγ signaling ([2]; 100 mg/kg) [h] | Structure (SMILES) | improvement of disease (pigmentation at lesion borders, repigmentation, Facial VASI index) [1] | efficacy in the model (vitiligo score, FIG. 1) [3] | efficacious in reversing the autoimmune destruction of melanocytes [4] |
| --- | --- | --- | --- | --- | --- |
| 6 | 20 | COc1cc(Nc2ncc(C)c(Nc3ccc4oc(=O)[nH]c4c3)n2)cc(C)c1F [5-((2-((4-fluoro-3-methoxy-5-methylphenyl)amino)-5-methylpyrimidin-4-yl)amino)benzo[d]oxazol-2(3H)-one hydrochloride] | early improvement in their disease | excellent efficacy | – |
| – | – | N#CC[C@H](C1CCCC1)n1cc(-c2ncnc3[nH]ccc23)cn1 [ruxolitinib, (R)-3-(4-(7H-pyrrolo[2,3-d]pyrimidin-4-yl)-1H-pyrazol-1-yl)-3-cyclopentylpropanenitrile] | – | – | confirmed |
| – | – | C[C@@H]1CCN(C(=O)CC#N)C[C@@H]1N(C)c1ncnc2[nH]ccc12 [tofacitinib, 3-{(3R,4R)-4-methyl-3-[methyl-(7H-pyrrolo[2,3-d]pyrimidin-4-yl)-amino]-piperidin-1-yl}-3-oxo-propionitrile] | – | – | confirmed |
